Measurements taken from a melting point compilation (Tetko et al.).

Question: Which melting point does the source give for `Oc1c(F)c(F)c(O)c(F)c1F` here?
Answer: 172 to 174 °C

Question: Which melting point does the source give for `CC(=O)n1c2ccccc2c2cc3ccccc3nc21` here?
Answer: 187 °C

Question: Which melting point does the source give for `N#CC(c1ccc(Cl)cc1)c1c(Cl)cc(-n2ncc(=O)[nH]c2=O)cc1Cl` (configuration not stated) here?
Answer: 295 °C

Question: With `O=[N+]([O-])c1cccc(Oc2ccccn2)c1` as the compound, how does the melting point read?
Answer: 93 to 95 °C

Question: With `O=C1CCc2ccccc2N1` as the compound, how does the melting point read?
Answer: 164 °C

Question: Which melting point does the source give for `COc1cc(F)c(C=O)cc1OC` here?
Answer: 99 °C

Question: Which melting point does the source give for `CC(=O)Nc1ccc(C=NNC(N)=S)cc1` here?
Answer: 225 to 230 °C

Question: Which melting point does the source give for `O=C1CC(c2ccccc2)Oc2cc(O)ccc21` (configuration not stated) here?
Answer: 188 °C

Question: With `CCOC(=O)c1[nH]c(C)cc1C` as the compound, how does the melting point read?
Answer: 125 to 126 °C

Question: With `c1cnc(SSc2ncccn2)nc1` as the compound, how does the melting point read?
Answer: 139 to 141 °C

Question: For `O=C1C(c2ccccc2)C(c2ccccc2)N1c1ccccc1` (configuration not stated), which melting point is on record?
Answer: 134 °C

Question: With `Nc1cc(N)cc(C(=O)O)c1` as the compound, how does the melting point read?
Answer: 235 °C

Question: For `CNc1ccc(C(=O)O)cc1`, which melting point is on record?
Answer: 160 to 163 °C

Question: For `O=C(Cl)c1sccc1Br`, which melting point is on record?
Answer: 65 to 67 °C

Question: Which melting point does the source give for `O=C(O)c1ccc(OC2CCOCC2)nc1` here?
Answer: 168 to 170 °C

Question: Which melting point does the source give for `O=[N+]([O-])c1ccc(NN=C(Cc2ccccc2)C(Cc2ccccc2)=NNc2ccc([N+](=O)[O-])cc2)cc1` here?
Answer: 276 °C

Question: Which melting point does the source give for `CC12CCC3C(C1CCC2=O)C1(CC2CC(=O)CCC23C)OCCO1` (configuration not stated) here?
Answer: 205 to 208 °C

Question: Which melting point does the source give for `O=[N+]([O-])c1ccc2c(c1)-c1cccc([N+](=O)[O-])c1C2` here?
Answer: 284 to 288 °C

Question: For `CC(=O)OC1CCC2(C)C(=CCC3C4CC(C)C(=O)C4(C)CCC32)C1` (configuration not stated), which melting point is on record?
Answer: 141 °C

Question: With `CC(=O)Oc1ccc(C(C)(C)c2ccc(OC(C)=O)cc2)cc1` as the compound, how does the melting point read?
Answer: 86 to 91 °C

Question: For `C1SSCSSS1`, which melting point is on record?
Answer: 60.5 °C

Question: With `O=C1OC(CO)C(O)C(O)C1O` (configuration not stated) as the compound, how does the melting point read?
Answer: 151 to 155 °C

Question: With `CC(=O)OC1CC2(C)C(CC(O)C3C4(C)CCC(O)C(C)C4CCC32C)C1=C(CCC=C(C)C)C(=O)O` (configuration not stated) as the compound, how does the melting point read?
Answer: 192 °C

Question: For `CC(=O)OC1CC2C(C)C(=O)C3(C(O)CC4C(C)(C)CCC(OC(C)=O)C4(C)C13)C2O` (configuration not stated), which melting point is on record?
Answer: 246 °C

Question: Which melting point does the source give for `COC(=O)c1csc(C=O)c1` here?
Answer: 115 °C

Question: Which melting point does the source give for `CC(=O)c1ccc(Oc2ccccc2)cc1` here?
Answer: 52 to 54 °C

Question: For `CCC(CO)NCCNC(CC)CO` (configuration not stated), which melting point is on record?
Answer: 89 °C

Question: Which melting point does the source give for `CC(C)(C)OC(=O)N[C@H](CC(=O)O)Cc1ccccc1` here?
Answer: 104 °C

Question: With `Clc1cc2oc3cc(Cl)c(Cl)cc3c2cc1Cl` as the compound, how does the melting point read?
Answer: 227 °C

Question: For `CCOC(=O)CNc1ccc(I)cc1`, which melting point is on record?
Answer: 84 to 86 °C

Question: For `NC(=NO)c1cc(F)c(F)cc1F`, which melting point is on record?
Answer: 91 to 92 °C

Question: Which melting point does the source give for `CCCCCCc1ccc2ccccc2c1` here?
Answer: -3 °C

Question: With `OCc1csc(-c2cccnc2)n1` as the compound, how does the melting point read?
Answer: 120 to 121 °C

Question: With `Nc1ncccc1[N+](=O)[O-]` as the compound, how does the melting point read?
Answer: 166 °C

Question: Which melting point does the source give for `O=C1CC(c2ccccc2)Cc2ccncc21` (configuration not stated) here?
Answer: 83 °C

Question: For `O=C(O)c1cccc(-n2cncn2)c1`, which melting point is on record?
Answer: 262 to 268 °C

Question: With `Nc1ccc(S(=O)(=O)NCCO)cc1` as the compound, how does the melting point read?
Answer: 97 to 99 °C

Question: For `Cc1cc(O)nc(O)c1`, which melting point is on record?
Answer: 197 °C

Question: For `O=C(O)C1CC(c2ccccc2)CCC1C(=O)c1ccccc1` (configuration not stated), which melting point is on record?
Answer: 184 to 187 °C

Question: Which melting point does the source give for `COc1cccc2cc(C(=O)c3cc4ccccc4o3)oc12` here?
Answer: 154 to 155 °C

Question: For `N#C/C(=N/Nc1cccc([N+](=O)[O-])c1)c1nc(-c2ccccc2)cs1`, which melting point is on record?
Answer: 215 °C

Question: Which melting point does the source give for `CC(C(=O)O)c1ccc(Cl)cc1` (configuration not stated) here?
Answer: 57 °C

Question: Which melting point does the source give for `O=C1c2ccccc2C(=O)N1c1ccc(Cl)cc1` here?
Answer: 197 °C

Question: Which melting point does the source give for `COc1ccc(/C(C)=C/C(C)=O)cc1` here?
Answer: 52.5 to 53 °C

Question: With `COc1cccc(Br)c1O` as the compound, how does the melting point read?
Answer: 64 °C

Question: Which melting point does the source give for `CCOC(=O)C(N)=S` here?
Answer: 63 °C

Question: With `CC1=C(C(=O)OCCC(C)C)C(c2ccco2)NC(=O)N1` (configuration not stated) as the compound, how does the melting point read?
Answer: 176 °C

Question: For `O=C(COc1ccccc1)c1ccc(O)cc1O`, which melting point is on record?
Answer: 207 to 208 °C

Question: Which melting point does the source give for `Nc1cccnc1O` here?
Answer: 118 to 130 °C

Question: Which melting point does the source give for `O=C(/C=C/c1ccc(-c2ccc([N+](=O)[O-])cc2)o1)c1ccco1` here?
Answer: 187 °C

Question: With `O=[N+]([O-])C=Cc1ccc2c(c1)OCO2` as the compound, how does the melting point read?
Answer: 159 to 163 °C

Question: With `CCCCOC(=O)CCCC` as the compound, how does the melting point read?
Answer: -92.8 °C

Question: Which melting point does the source give for `COc1ccccc1/N=N/c1c(N)nn2c(C(F)(F)F)cc(=O)[nH]c12` here?
Answer: 295 °C

Question: With `COc1ccc(C(CCC(=O)O)C(C)(C)C(=O)O)cc1` (configuration not stated) as the compound, how does the melting point read?
Answer: 121 °C

Question: Which melting point does the source give for `Nc1ccc(-c2ccccc2)cn1` here?
Answer: 135 °C

Question: For `OCc1ccc2[nH]cnc2c1`, which melting point is on record?
Answer: 129 to 131 °C

Question: For `CSc1ccc(C(F)(F)F)cc1NN`, which melting point is on record?
Answer: 86 to 88 °C

Question: Which melting point does the source give for `Cc1cc(Cl)c(Cl)cc1Cl` here?
Answer: 82.4 °C

Question: With `Nc1ccc2c(c1)C(=O)c1ccccc1C2=O` as the compound, how does the melting point read?
Answer: 304 °C

Question: With `c1ccc(/N=N/c2ccccc2/N=N/c2ccccc2)cc1` as the compound, how does the melting point read?
Answer: 111 °C

Question: Which melting point does the source give for `COC(=O)c1cc(Br)c(Br)s1` here?
Answer: 79 °C

Question: With `CCCCCCN(CCCCCC)C1=NC(=Cc2ccccc2)C(=O)N1c1ccccc1` as the compound, how does the melting point read?
Answer: 76 °C
